A melting point compilation (Tetko et al.; mined from patent text by program, amines drawn as free bases though some values may be those of a salt)

melting point [°C]	Structure (SMILES)
77 to 78	CCOC(=O)c1cc2ccc(N(CC)CC)cc2oc1=O
162 to 168	CC(C)(C)OC(=O)CON=C(C(=O)O)c1cccc(NC=O)n1
172 to 174	CCCNC(=O)NNC(=O)c1ccccc1
114 to 115	CCCSc1cc(C(=O)CCC(=O)c2cc(OC)c(OC)c(OC)c2)cc(OC)c1OCc1ccccc1
> 250	Cc1nc(Nc2ccc(Cl)cc2)sc1C(=O)O
112	CCCCc1ccc2ncn(Cc3ccc(-c4ccccc4-c4nnnn4COC)cc3)c(=O)c2c1
90	CCCC[C@H]1CC[C@H](c2ccc(OC(=O)[C@H]3CC[C@H](CCC)C3)cc2)CC1 (relative stereo)
205 to 207	COc1cc(-c2nc(C)c(C(=O)O)s2)cc(OC)c1OC
135 to 137	CCCCSc1nnc(N(C)C(=O)NC)s1
55 to 57	O=C(NCCSCc1cccc(Cl)c1)c1c(Br)cccc1Br
66 to 68	CCOC(=O)c1cc(S(=O)(=O)N2CCN(CC)CC2)cnc1OCC
208	CCCCc1nc(S(C)=O)c(C(=O)O)n1Cc1ccc(-c2ccccc2C(=O)O)cc1 (stereo unspecified)
194 to 196	Cc1cc(C)n2nc(S(=O)(=O)Nc3c(F)cccc3F)c(Cl)c2n1
126 to 128	NC(=O)CCCSCc1nccc(NC(N)=NCC(F)(F)F)n1
112 to 114	CCCCC(=NOCc1ccc(OCc2nc(-c3ccccc3)oc2C)cc1)C(=O)O
134 to 138	CCCn1nnn(-c2cc(OCC#CI)c(Cl)cc2Cl)c1=O

melting point [°C]	Structure (SMILES)
134 to 136	Cn1cnnc1SCC(=O)C12CC3CC(CC(C3)C1)C2
45 to 56	CCOc1ccc(C(=O)N(CC)CC)c(OCC)c1
159 to 161	C=CCNC(=O)c1cnc(SC)nc1NC(C)C
64 to 67	CCCCCCCCCCCCSCC(CO)NC(=O)CCCCCCCCCC (stereo unspecified)
37 to 39	CC(C)=CCCC(C)CCOCC(=O)c1cc(C(C)C)c(O)c(C(C)C)c1 (stereo unspecified)
56 to 59	CCCCCCCCCCCCc1c([N+](=O)[O-])ncn1C
108 to 110	CCC(Oc1cccc(C)c1C)C1=NCCN1C=Nc1ccccn1 (stereo unspecified)
140 to 141	CCOC(=O)C(=O)Nc1ccc(NC(=O)C(=O)OCC)c(C#N)c1
171 to 173	CCc1nc(-c2ccccc2)c(NC(=O)Nc2ccccc2)s1
212 to 214	CCc1c(Cc2c[nH]c3ccccc23)[nH]c(=O)c(CC(C)C)[n+]1[O-]
42 to 43	CCCOc1ccc(CCCCCC(=O)O)cc1
126	COc1cccc(NC(=O)C(C)(C)C)c1
190 to 193	CNC(=S)NS(=O)(=O)c1cc(CCNC(=O)c2cc(Cl)ccc2OC)ccc1OC
102 to 104	CC(C)Nc1cccnc1N1CCN(C(=O)c2ccc(C(=O)N(C)CC3OCCO3)cc2)CC1
52 to 55	CCN1CCN(C)C[C@@H](NC(=O)c2cc(Br)c(NC)nc2OC)C1

Second part, the compound before the results:

Structure (SMILES)	melting point [°C]
C1COC(NC(C2CC2)C2CC2)=N1	105 to 106
Oc1ncn(-c2cccc(F)n2)n1	290
CC(CN1C(=O)c2ccccc2C1=O)C(=NO)n1nc(C(C)(C)C)cc1N (stereo unspecified)	198 to 199
O=c1c(-c2cccc(C(F)(F)F)c2)coc2cc(O)c(O)cc12	274 to 275
CC(C)c1cccc(C(C)C)c1NC(=O)Cc1c(-c2ccccc2)c2cc(Cl)ccc2n(C)c1=O	237 to 238
CCCCCCCCc1ccc(-c2ccc(COc3ccc(OCC(C)OC(=O)OCCCC)cc3)cc2)cc1 (stereo unspecified)	94
O=c1[nH]c2cc(Cl)cc(Cl)c2c(=O)n1Cc1cccc(I)c1	299 to 302
COc1cccc(-c2nc3n(n2)CCc2ccccc2-3)c1	94 to 96
COc1c(N2CCC(n3ccnn3)C2)c(F)c(N)c2c(=O)c(C(=O)O)cn(C3CC3)c12 (stereo unspecified)	208
O=C1c2ccccc2C(=O)N1CC(=O)N1c2ccccc2N(Cc2cccc3ccccc23)C(=O)[C@H]2CCC[C@H]21 (relative stereo)	266 to 270
CCc1nn(C2CCCC2)c2c1CCNC2=O	152 to 153
CC1(C)CC[C@@H](C(=O)O)[C@@H]1SC(=O)c1ccccc1 (relative stereo)	131
O=C(COc1ccc(Cl)c2c(=O)c3ccccc3sc12)c1ccccc1	174 to 176
CN(Cc1cc(C(C)(C)C)c(O)c(C(C)(C)C)c1)n1ccnc1	139
CC(C)N1CCN(CCN2CCN(c3cn(-c4ccc(F)cc4)c4cc(Cl)ccc34)CC2)C1=O	176 to 177
Nc1ccc(NCCNS(=O)(=O)c2ccccc2)cc1	144
O=C(O)CCC(=NO)c1ccc(-c2ccc(F)cc2)cc1	152 to 153
CCOP(=O)(CC(=O)Nc1cc2c(Nc3ccc(OCc4cccc(Cl)c4)c(Cl)c3)ncnc2cn1)OCC	106 to 109
O=C(CN1C(=O)C(NC(=O)Nc2ccc(Cl)cc2)N=C(c2ccccc2)c2ccccc21)NCc1ccccc1 (stereo unspecified)	260 to 262
Cn1cc(Br)cc(Nc2ccc(OC3CN(C(=O)OC(C)(C)C)C3)cn2)c1=O	120 to 121
COCC(=O)Nc1ccc(-c2ccncc2)cc1	177 to 178
CC(C)(C)c1cc(C(=O)OCCC(=O)Oc2ccc(Cl)c(N)c2)cc(C(C)(C)C)c1O	122 to 124
Nc1cnc(-c2cccc(Cl)c2Cl)c(N)n1	169 to 170
Cc1nc2c(N)cc(Br)cc2n1C	206 to 209

Structure (SMILES)	melting point [°C]
Nc1cc(Cl)cc(Cl)c1C(=O)NCc1cccc(F)c1	79 to 81
CC(Br)C(=O)c1ccc(CN2C(=O)c3ccccc3C2=O)s1 (stereo unspecified)	127 to 130
O=C(Nc1ccc(OCCN2CCCC2=O)c2ccccc12)c1cc(F)cc(N2CCCCC2)c1	161 to 162
O=C1CN(c2ccc(Cl)cc2)C(=O)N1C(=O)c1c(Cl)cccc1Cl	176 to 180
COC(=O)c1ccc(OCCNC(=O)C2Cc3ccccc3N2S(=O)(=O)c2ccc(-c3cccc(C(F)(F)F)c3)cc2)cc1C(F)(F)F (stereo unspecified)	75 to 79
CC(C)(C)OC(=O)N1CCC(Oc2ccc3c(c2)NC(=O)CC3)CC1	158 to 160
COC(=O)c1cn(S(=O)(=O)c2ccc(C)cc2)c(C)c1C	108 to 114
Cc1cccc2c1N(Cc1ccccn1)C(=O)C(NC(=O)Nc1cccc(-c3nnn[nH]3)c1)N=C2c1ccccc1F (stereo unspecified)	174 to 182
COC(=O)c1cn(C2CC2)c2cc(F)c(F)cc2c1=O	223 to 224
Fc1ccc(NN=Cc2cccs2)cc1	138 to 140
CSc1ccc(-c2nn(CC=Cc3ccc(Cl)cc3)c(=O)cc2-c2ccc(F)cc2)cc1	119
NS(=O)(=O)c1cccc(NC(=O)c2cnn3c(C(F)F)cc(-c4ccc(C(F)(F)F)c(F)c4)nc23)c1	262
Cn1ccc(N)cc1=O	200 to 202
CC(C)NC1=NS(=O)(=O)c2ccc(CC#N)cc2N1	195 to 203
Cc1ccc(Oc2ccc(C#CC(C)N(O)C(N)=O)o2)cn1 (stereo unspecified)	149
Nc1cc(=O)n(Cc2ccc(Cl)c(Br)c2)[nH]1	171 to 172
C#CCOc1cc(F)cc(F)c1-n1c(=O)cc(C(F)(F)F)n(C)c1=O	159 to 162
O=C1OC(CO)CN1c1ccc2ccccc2c1 (stereo unspecified)	174
O=C(CCCN1CCC2(CC(O)c3c(Cl)cccc32)C1)c1ccc(F)cc1 (stereo unspecified)	161 to 163
CC(C)(C(N)=O)c1ccc(C(=O)O)cc1	218 to 219
CC1Oc2ccc(O)cc2C=C1C=O (stereo unspecified)	107 to 109
COC(=O)Cc1c(C)n(-c2ccnc3ccccc23)c2ccc(OC)cc12	103 to 105
C=CCNc1cc(C(=O)O)cc(S(N)(=O)=O)c1-c1ccccc1	169 to 172
COc1ccc2cc(Br)cc(C)c2n1	89 to 91

Structure (SMILES)	melting point [°C]
Cc1cn2ccccc2c1S(=O)(=O)c1ccc(O)cc1	177
O=S(=O)(NC1CCCCC1)c1ccc(Cn2cnc3ccccc32)cc1	192 to 193
CC(/C=C/[C@H]1C[C@H]1c1ccc2c(c1)C(C)(C)CCC2(C)C)=C\C(=O)O (racemic)	93 to 96
O=C(O)C(O)c1ccc(-c2ccc(Cl)cc2)s1 (stereo unspecified)	158 to 160
CC(C)n1c(Cl)nc2ccccc21	58 to 60
OC(Cc1ccccc1Cl)(Cn1ccnc1S)C1(Cl)CC1 (stereo unspecified)	124 to 126
O=C(O)[C@@H](Cc1ccccn1)Nc1cc(-c2ccc(OCc3ccccc3)cc2)ncn1	142
CCC(CC)c1ccc(C=O)c2nc(Oc3c(C)cc(Cl)cc3Cl)n(C)c12	148 to 149
O=C1c2ccccc2C(=O)N1CC(Cc1ccc([N+](=O)[O-])cc1)=NO	181 to 183
Oc1ccc(-c2ncc3ncc(-c4ccc(C(F)(F)F)cc4)cc3n2)cc1	203 to 204
O=C(O)CN1CCOCC1	169 to 170
CC(C)n1nc(-c2cc(Br)c(N)nc2-c2ccccc2)ccc1=O	174 to 176
CC(=O)N1CCc2cc(C[C@@H](C)NCCOc3ccccc3OCC(F)(F)F)cc(C(N)=O)c21	144 to 146
CCOC(=O)[C@H](Cc1ccc(O)cc1)NC(=O)c1c(F)cccc1Cl	144 to 145
O=S(=O)(N[C@H]1CC[C@H](CCN2CCN(c3nccc4c3CCO4)CC2)CC1)c1ccccc1	168
COc1cc2c(cc1OC)N(C)C(=O)CN=C2c1ccc(Cl)c(Cl)c1	174 to 177
Cn1c(NCCCOc2cccc(CN3CCCCC3)c2)nc2ccccc21	153 to 154
Nc1cc(-c2ccncc2)cc2nc(-c3ccccc3)nn12	207 to 210
C=Cc1cc(Cl)cc2c1OC(C(F)(F)F)C(C(=O)O)=C2 (stereo unspecified)	183 to 186
CC1(COc2ccc([N+](=O)[O-])cc2)CC(=O)c2cc(O)c(C(C)(C)C)cc2O1 (stereo unspecified)	205 to 209
O=C(NCc1ncc(C(F)(F)F)cc1Cl)c1c(Cl)ccnc1Cl	122 to 124
CC/C(=C\C=C\C(O)(C(F)(F)F)C(F)(F)F)c1ccc(COc2ccc(CO)c(CO)c2)s1	113 to 114
